One compound from patent US5106951A, “Antibody conjugates” (NeoRx Corporation, priority 1989, dated 1992) can be followed below.

What all share (assay): Binding of doxorubicin by synthetic oligopeptide, absorbance titration
The target of test [1] is synthetic oligopeptide, Peptide 8, DK(Fmoc)GK(Fmoc)DGGC (DK(Fmoc)GK(Fmoc)DGGC-amide). To be noted: 50 μM doxorubicin in 0.1M phosphate buffer at pH 7.0, 475 nm, fit to single hyperbola; read-out: Kd (apparent dissociation constant). The text has this:
(§1) Experiments have been conducted to assess the use of synthetic oligopeptides to bind the drug doxorubicin. Binding was followed by changes in the visible spectrum of doxorubicin, and analyzed by titrating the drug absorption spectrum at 475 nm or 565 nm with varying concentrations of peptide, in pH 7.0 0.1M phosphate buffer. Binding curves were fit to a single hyperbola with the program Enzfitter (Elsevier-Biosoft). These peptides were designed to test the effectiveness in intercalating doxorubicin of a 1,3-spacing between amino acids containing aromatic groups in their side chains (i.e., a single non-aromatic amino acid intervenes between the two residues having aromatic side chains). The amino acids are C, cys; K, lys; W, trp; G, gly; E, glu; D, asp; Fmoc, 9-fluorenylmethoxycarbonyl, attached to the lysine epsilon-amino group; and MIANS, 2-(4'-maleimidylanilino)naphthalene-6-sulfonic acid attached to cysteine.
No absorbance change was observed when the oligopeptide was added to buffer in the absence of doxorubicin. […] Oligopeptide carrier alone was added to the reference cuvette. The binding constant is derived from the nonlinear least squares best fit to a single hyperbola using the program Enzfitter (Elsevier-Biosoft), yielding an apparent dissociation constant of 22 μM.

Test [2] addresses synthetic oligopeptide, Peptide 4, KK(Fmoc)GK(Fmoc)KGGC. To be noted: pH 7.0 0.1M phosphate buffer, doxorubicin absorption at 475 nm or 565 nm titrated with peptide.
Source text: as §1

The target in test [3] is synthetic oligopeptide, Peptide 3, […]-amide. To be noted: pH 7.0 0.1M phosphate buffer, doxorubicin absorption at 475 nm or 565 nm titrated with peptide.
Source text: as §1

The target of test [4] is synthetic oligopeptide, Peptide 2, CKWGWGWK-amide. To be noted: pH 7.0 0.1M phosphate buffer, doxorubicin absorption at 475 nm or 565 nm titrated with peptide.
Source text: as §1

Test [5] concerns the target synthetic oligopeptide, Peptide 1, CKWGWK-amide. To be noted: pH 7.0 0.1M phosphate buffer, doxorubicin absorption at 475 nm or 565 nm titrated with peptide.
Source text: as §1

For test [6], the target named is synthetic oligopeptide, Peptide 9, EK(Fmoc)EK(Fmoc)EGGC. To be noted: pH 7.0 0.1M phosphate buffer, doxorubicin absorption at 475 nm or 565 nm titrated with peptide.
Source text: as §1

The target in test [7] is synthetic oligopeptide, Peptide 7, EK(Fmoc)GK(Fmoc)EGGC. To be noted: pH 7.0 0.1M phosphate buffer; 1,3 spacing of aromatic side chains.
Source text: as §1

The target of test [8] is synthetic oligopeptide, Peptide 10, EEK(Fmoc)GK(Fmoc)EEGGC. To be noted: pH 7.0 0.1M phosphate buffer; doxorubicin absorption at 475 nm or 565 nm titrated with peptide.
Source text: as §1

In test [9] the test system is synthetic oligopeptide, Peptide 11, EC(MIANS)GC(MIANS)EGGC(Acm).
Source text: as §1
This oligopeptide was prepared by first synthesizing the oligopeptide ECGCEGGC(Acm), wherein "Acm" represents an acetamidomethyl protecting group. The synthesis was conducted using the solid phase methodology of Barany and Merrifield, supra, and Houghten, R. A., Proc Nat. Acad. Sci. USA 82:5131, 1985. The number of cysteine thiols per peptide was 1.8 as measured by titration with Ellman's reagent. […]
The peptide concentration was determined with ninhydrin. […]

Test [10] has as its target synthetic oligopeptide, Peptide 5, EK(Fmoc)GGK(Fmoc)EGGC. To be noted: pH 7.0 0.1M phosphate buffer, 1,4 spacing of aromatic side chains.
Source text: as §1, with “These peptides were designed to test the effectiveness in intercalating doxorubicin of a 1,3-spacing between amino acids containing aromatic groups in their side chains (i.e., a single non-aromatic amino acid intervenes between the two residues having aromatic side chains).” left out

Test [11] has as its target synthetic oligopeptide, Peptide 6, EK(Fmoc)K(Fmoc)EGGC. To be noted: pH 7.0 0.1M phosphate buffer, 1,2 spacing of aromatic side chains.
Source text: as §1, with “These peptides were designed to test the effectiveness in intercalating doxorubicin of a 1,3-spacing between amino acids containing aromatic groups in their side chains (i.e., a single non-aromatic amino acid intervenes between the two residues having aromatic side chains).” left out

Take `COc1cccc2c1C(=O)c1c(O)c3c(c(O)c1C2=O)C[C@@](O)(C(=O)CO)C[C@@H]3O[C@H]1C[C@H](N)[C@H](O)[C@H](C)O1` [Doxorubicin, doxorubicin]: the Kd in test [1] was 22 µM; in test [2], “same”; in test [2] (listed as doxorubicin), “no detectable binding”; in [3] it was “same”; in test [3] (listed as doxorubicin), “no detectable binding”; in [4] it was “same”. Further, the Kd entry is “no detectable binding” in [4] (listed as doxorubicin); “no detectable” in [5]; “no detectable binding” in test [5] (listed as doxorubicin); “no detectable” in test [6]; “binding is not observed” in test [6] (listed as doxorubicin); 280 µM in test [7]. Also, the Kd in [8] is 33 µM; in [9] (pH 7.0 0.1M phosphate buffer, at 565 or 580 nm, read-out: Kd (best-fit apparent dissociation constant)), 48 µM; in [10], “same”; in test [10] (listed as doxorubicin) it was “the same result is obtained”; in test [11], “same”; in test [11] (listed as doxorubicin), “undetectable binding”. Further, the “improvement of binding of doxorubicin by MIANS side chain versus FMOC” value in test [9] (MIANS peptide compared with FMOC peptide, 1,3 spacing) is “about 6 fold”.
